Assay: Prostate case study: DCE CT tissue concentration-time curve fitted to 2-, 3- and 4-compartment mamillary distributed-parameter models
Format: in vivo, patient
Conditions: value (percent CV); for t1: vascular transit time
Description: It is instructive to apply the present mamillary model to a tumor study case to further illustrate some physiological aspects of the model, and also for comparison with another model. Ca(t) was sampled at the iliac arteries simultaneously in the same CT scan as the prostate tissue concentration-time curve, Ctiss(t). The contrast medium used was the x-ray dye lopamidol and the region of interest for Ctiss was drawn over the prostate gland. Example imaging and patient protocols that were used are, for example, expounded upon in T. S. Koh, V. Zeman, J. Darko, T. Lee, M. F. Milosevic, M. Haider, P. Warde, and I. W. T. Yeung, “The inclusion of capillary distribution in the adiabatic tissue homogeneity model of blood flow”, Phys. Med. Biol., vol. 46, pp. 1519-1538, 2001.
The ‘goodness-of-fit’ between model and data can be given by the χ^2 statistic as detailed in equation (11).
A 2-compartment distributed-parameter model has 4 adjustable parameters (i.e F, t1, k12 and k21), and each additional compartment introduces two additional parameters given by the rate constants.
The tissue concentration-time curve Ctiss(t) was sampled at a region of interest over the prostate tumor. […] A test statistic to compare the goodness-of-fit of a more complex model (χ^2c) with that of a less complex (reduced) model (χ^2r) can be given by equation (12), namely [formula] which follows the F-distribution. The degrees of freedom dfr and dfc are those associated with the reduced and complex models, respectively. […] Correspondingly, large values of F* would justify the more complex model.
The fitted Ctiss(t) curves using 2-, 3- and 4-compartment distributed-parameter models are shown in FIG. 5 and their corresponding impulse residue functions are shown in FIG. 6. The values for the parameters adjusted in the model fittings together with their error estimates (as percent CVi) are listed in Table 1.

[1] = 2-compartment model, rate constant for tracer transfer
[2] = 3-compartment model, rate constant for tracer transfer
[3] = 4-compartment model, rate constant for tracer transfer

## C[C@H](O)C(=O)Nc1c(I)c(C(=O)NC(CO)CO)c(I)c(C(=O)NC(CO)CO)c1I [lopamidol]
[1]
  K12: 0.744 (4) min^−1
  K21: 2.183 (4) min^−1
2-compartment model
  t1: 0.717 (3) min
[2]
  K12: 1.581 (17) min^−1
  K13: 0.259 (28) min^−1
  K21: 1.854 (15) min^−1
  K31: 0.818 (25) min^−1
3-compartment model
  t1: 0.688 (9) min
[3]
  K12: 1.579 (20) min^−1
  K13: 0.264 (36) min^−1
  K14: 0.000 (53) min^−1
  K21: 1.853 (17) min^−1
  K31: 0.816 (32) min^−1
  K41: 0.000 (44) min^−1
4-compartment model
  t1: 0.688 (11) min
